The text below walks through data of patent US20050112066A1, “Complexes of cyclic polyaza chelators with cations of alkaline earth metals for enhanced biological activity” (CONCAT LP, a California Limited Partnership, priority 2003, published 2005).

The subject of series [1] is Corynebacterium Xerosis. The experiment in a line: minimum inhibitory concentration against skin bacteria. Format: cell-based. The procedure: This effect is unexpected since the presence of cations other than those of first transition series elements would be expected to inhibit the rate and extent of complexation of the first transition series elements by both the cyclic and linear chelators, albeit to differing degrees.
Two chelators were compared in terms of their minimum inhibitory concentrations (MIC) against the common skin bacteria Corynebacterium Xerosis in media containing either 3.7 mg/L or 137 mg/L of Ca(II). The two chelators were N,N′,N″-tri(dihydroxyphosphoryl methyl)-1,4,7-triazacyclononane (within the scope of the present invention) and diethylene triamine pentaacetic acid (DTPA) (outside the scope of the present invention). The MIC for the triazacyclononane was 8 μg/mL in medium containing 3.7 mg/L of Ca(II), and 5 μg/mL in medium containing 137 mg/L of Ca(II).

Series [2] deals with HFF (human foreskin fibroblasts). The series is described as follows: toxicity toward nonproliferating mammalian cells in vitro. The class given is cell-based. To be noted: 0.3 mM; mature, nonreplicating HFF cultures in maintenance media; five-day period of observation. The procedure:
This example illustrates the relatively low toxicity of a representative example of the chelators of this invention toward nonproliferating mammalian cells in vitro.
To mature, nonreplicating cultures of HFF (human foreskin fibroblasts) kept in maintenance media was added N,N′,N″-tris(dihydroxyphosphorylmethyl)-1,4,7-triazacyclononane at a concentration of 0.3 mM. No effect on the resting cells was observed over a five-day period of observation.

The conditions of series [3]: room temperature; cited from earlier work.
The test system of series [4] is Sprague Dawley rats. The series is described as follows: subacute toxicity, repeated intravenous doses to rats. Particulars: 0.05 millimoles per kg i.v. on 10 days. The class given is in vivo. The text has this:
Ten male Sprague Dawley rats 29 days old and weighing between 73.4 and 87.8 grams at the beginning of the experiment were randomized, employing the block stratification method, into two groups consisting of five rats each. On each of days 1, 2, 3, 6, 7, 8, 9, 10,13 and 14 of the experiment one set of rats received an intravenous dose of N,N′,N″-tri(dihydroxyphosphoryl methyl)-1,4,7-triazacyclononane equal to 0.05 millimoles per kg of initial body weight (experimental group) while the other group received an equivalent volume of normal saline solution. The weights of the animals were recorded three times per week and the animals were sacrificed on the 28th day, major organs removed and weighed and tissues removed for microscopic examination.

Series [5] deals with mammalian cell replication. The experiment in a line: inhibition of mammalian cell replication in vitro. Format: cell-based.
Series [6] has as its system Laboratory mice. The series is described as follows: acute in vivo toxicity, single intravenous dose to mice. Particulars: 3.0 mM/kg single intravenous dose. The procedure: This example illustrates the low in vivo toxicity of a representative example of the chelators of this invention upon administration to mice.
Laboratory mice were treated by the intravenous administration of 3.0 mM/kg intravenously of the sodium salt of N,N′,N″-tris(dihydroxyphosphoryl-methyl)-1,4,7-triazacyclononane as a single intravenous dose. […] This in vivo LD50 toxicity dose results in an instantaneous in vivo concentration which is orders of magnitude greater than the dose of this agent which inhibits mammalian cell replication in vitro (0.009 mM/L).

Converted amounts (≈) assume the structure as drawn. Like-named read-outs stand apart in the source and are kept apart here.

What is called MIC is the lowest concentration that inhibits growth of the organism. With `O=C(O)CN(CCN(CC(=O)O)CC(=O)O)CCN(CC(=O)O)CC(=O)O` [DTPA, diethylene triamine pentaacetic acid, reference compound], the MIC is 36 µg/mL (≈ 91.5 µM) in series [1] (medium containing 3.7 mg/L of Ca(II)) and 320 µg/mL (≈ 814 µM) in series [1] (medium containing 137 mg/L of Ca(II)).

For `O=P(O)(O)CN1CCN(CP(=O)(O)O)CCN(CP(=O)(O)O)CC1` [N,N′,N″-Tris-(dihydroxyphosphorylmethyl)-1,4,7-triazacyclononane], the “effect on the resting cells” value in series [2] is given as “No effect”. Moreover, the “time to achieve equilibrium with the cations” value in series [3] is given as “many months”. For the same molecule, in series [4] (necropsy on the 28th day), the “differences between tissues upon microscopic examination of major organs vs control group” value is “no differences”. For the same molecule, in series [4] (period of injections and two-week post-injection period), the “difference in weight or rate of weight gain vs control group” value is reported as “no statistically significant difference”. In series [4] (sacrificed on the 28th day), the “differences in weights of major organs vs control group” value is “no differences”. Moreover, the MIC in series [1] (Corynebacterium xerosis, medium containing 3.7 mg/L of Ca(II), read-out: MIC) was 8 µg/mL (≈ 19.5 µM); in series [1] (Corynebacterium xerosis, medium containing 137 mg/L of Ca(II), read-out: MIC), 5 µg/mL (≈ 12.2 µM).

For the molecule `O=P([O-])([O-])CN1CCN(CP(=O)(O)O)CCN(CP(=O)(O)O)CC1.[Na+].[Na+]` [sodium salt of N,N′,N″-tris(dihydroxyphosphoryl-methyl)-1,4,7-triazacyclononane], in series [5], the “dose which inhibits mammalian cell replication in vitro” value came to 0.009 mM/L. Also, the “mice surviving for over 14 days” value in series [6] is reported as “Over 50%”.
